A melting point compilation (Tetko et al.; mined from patent text by program, amines drawn as free bases though some values may be those of a salt)

melting point [°C]	SMILES
94 to 96	CCCc1c(OCCCOc2ccc(C(=O)C(=O)O)cc2)ccc(C(C)=O)c1OC
143 to 144	CC(C)=CCNC(=O)N1CC(Oc2cccc(C(F)(F)F)c2)C1
238 to 239	COc1cccc(NC(=O)NC2N=C(C)c3ccccc3N(CC(=O)N(C)c3ccccc3)C2=O)c1 (centres undefined)
250	NC(=O)N1C(=O)C(C(=O)c2cccs2)c2cnccc21 (centres undefined)
119 to 120	C=Cc1c(C(C)C)nc(C(C)C)c(CO)c1-c1ccc(F)cc1
205	CNc1nc(N)c(SC)c(Cl)n1
201 to 207	COc1cc2cc3c(Nc4ccc(Sc5nccn5C)c(Cl)c4)c(C#N)cnc3cc2cc1OCCn1ccnn1
143 to 144	O=C(O)CCc1cn(Cc2ccc3cc(OCc4ccccc4F)ccc3c2)cc1-c1ccccc1
209 to 210	NC(=NCC(F)(F)F)Nc1ccnc(CCCCc2nc(O)n[nH]2)n1
> 270	CCOc1cc2ncc(C#N)c(Nc3ccc4c(=O)[nH][nH]c(=O)c4c3)c2cc1OCC
198 to 199	Cc1ccc(C2=NC(O)(C(F)(F)F)CN2c2ccc(S(C)(=O)=O)cc2)cc1 (centres undefined)
50 to 52	COc1ccc(C=NCC(OC)OC)cc1OC
288 to 289	COC(=O)c1c(-c2ccccc2Cl)c2cc(C)c(C)cc2[nH]c1=O
186 to 188	COc1cc2ncnc(N3CCC(C(C)(O)CN4CCC(C)NS4(=O)=O)CC3)c2cc1OC (centres undefined)
111 to 112	CC(c1ccc(Cl)cc1Cl)C1(c2cccnc2)OC=CC1=O (centres undefined)
98 to 102	CC1CC(=O)c2cc(Cl)cc(Cl)c2O1 (centres undefined)
165 to 166	CCOP(=O)(/C=C/c1cn(-c2ccccc2)nc1OCc1ccc(OCc2nc(-c3ccc(C)c(C(=O)O)c3)oc2CC)c(OC)c1)OCC
235	CC(CN(C)C)Oc1ccc(/C=C/C(=O)O)cc1 (centres undefined)
152 to 155	CCN1CCC(CC(=O)NOC(C)(C)C)(S(=O)(=O)c2ccc(Oc3ccccc3)cc2)CC1
114 to 116	CCOC(=O)C1=Cc2cc(Cl)cc(-c3ccc(Cl)cc3)c2OC1C(F)(F)F (centres undefined)
131 to 135	COc1ccc2c(c1)CCC(C(=O)O)O2 (centres undefined)
> 220	O=C(O)CN1C[C@@H](Cc2c[nH]c3ccccc23)N(C(=O)c2cc(C(F)(F)F)cc(C(F)(F)F)c2)CC1=O

melting point [°C]	SMILES
68 to 80	COc1cc2ncc(N[C@H]3CC[C@H](C(=O)OC)CC3)nc2cc1OC
118 to 120	FC(F)(F)c1cc(I)c2c(c1)ncn2-c1ccccc1
62 to 63.5	CCc1ccc(CCc2ccccc2NC=O)nc1
94 to 95	CCCCCc1c(C(C)C)nc(C(C)C)c(CO)c1-c1cccc(Cl)c1
135 to 136	CC(=O)OC1CSC(Oc2cc(-c3ccc(F)nc3)cnc2F)C(OC(C)=O)C1OC(C)=O (centres undefined)
257 to 259	CC(=O)Nc1cn2cc(Sc3ccccc3)ccc2n1
190	Cc1cccc(-c2n[nH]cc2-c2ccnc(-c3ccc(Cl)cc3)c2)n1
181 to 185	CCCCCCOc1ccc(C=CC(C)=CC=CC(=O)O)cc1
64.2 to 64.7	CS(=O)(=S)OCc1c(F)c(F)c(F)c(F)c1F (centres undefined)
98 to 99	COc1ccc(C(=O)c2sccc2OC)cc1
103 to 104	CC1CCC(C(C)C)C(OCC(=O)OC2CC(=O)C(CCCCCCC(=O)O)=C2C=Cc2ccccc2)C1 (centres undefined)
156 to 158	O=C(OCc1ccc([N+](=O)[O-])cc1)OCc1ccc([N+](=O)[O-])cc1
215	Cn1c(=O)n(Cc2ccccc2)c(=O)c2cc(C(=O)NCc3ccc4c(c3)OCO4)ccc21
246 to 247	CC(C)n1nc(-c2nc(C#Cc3ccccn3)c(N)nc2-c2ccccc2)ccc1=O
136	O=C(O)c1cc2cc(Cl)ccc2nc1NC(Cc1ccc(Oc2ccc3ccccc3n2)cc1)C(=O)O (centres undefined)
116 to 117	O=C(O)Cc1cc2c(cc1Cc1ccccc1)OCO2
120 to 124	CS(=O)(=O)c1cc(CBr)ccc1Br
192 to 194	NC(=O)c1sc2nc(N3CCC(NCC(O)c4ccccc4F)CC3)cc(C(F)(F)F)c2c1N (centres undefined)
98 to 100	COc1ccc2c(c1)cc1n2CCC(COC(C)=O)C1 (centres undefined)
223 to 225	CC(=O)NC[C@H]1CN(c2ccc(C(=O)c3cnc4ccc([N+](=O)[O-])cn34)cc2)C(=O)O1
229 to 230	CNC(=O)c1cccc(NC(=O)Cc2c(O)ccc3ccccc23)c1
248	N#Cc1c(N2CCN(C(=O)c3ccco3)CC2)c2cc(F)ccc2n(Cc2ccc(F)cc2)c1=O

melting point [°C]	SMILES
115 to 118	CC(C)(C)OC(=O)N=C(NC(=O)OC(C)(C)C)N1CCC(n2ccc3ccccc32)CC1
117 to 118	CCCc1c(OCCCCCOc2cccc(NC(=O)C(=O)O)c2)ccc(C(C)=O)c1O
207 to 209	CC1COCc2nc3cnc4cc(Br)ccc4c3n21 (centres undefined)
68	CC1=CC(COC(c2ccccc2)(c2ccccc2)c2ccccc2)O[C@@H]1c1coc(C#N)c1N (some centres undefined)
121 to 123	COc1ccc(C2CCc3cc(Br)ccc3O2)cc1 (centres undefined)
127 to 128	Cc1nccc(N2CCC(CN3CCN(C(=O)c4ccc(F)cc4)CC3)CC2)n1
56 to 57	OC(CCl)(c1ccccc1)c1ccccc1
165 to 168	CNC(=NC#N)NCCCCc1csc(NC(=N)N)n1
208 to 210	Cc1cccc(-n2c(-c3cc(-c4ccc(S(C)(=O)=O)cc4)c(N4CCOCC4)s3)nc3ccccc3c2=O)c1
188 to 190	NCC(O)COc1cccc2c1=NC(=O)N=2 (centres undefined)
171 to 173	CC(=O)Nc1c(C)ccc([N+](=O)[O-])c1C
186	O=C1c2ccccc2CC(=NO)c2ccccc21
218 to 219	Cc1ccc(-n2c(=O)n(OCc3ccccc3)c(=O)c3cc(F)c(Cl)nc32)cc1
85 to 88	CC(C)(C)OC(=O)N1C(=O)[C@@H](O[Si](C)(C)C)[C@H]1c1ccccc1
149	CCOC(=O)c1cc2ccc(F)c(C)c2[nH]1
114 to 115	Cc1ccc(CCCOc2c(C)cc(-c3nnn(C)n3)cc2C)nn1
207 to 210	ON=Cc1ccc(-c2ccc(O)cc2)cc1
135 to 137	CCCCCc1nc(NC(=N)N)sc1-c1cccc([N+](=O)[O-])c1
159 to 165	O=C1C=C(C2CCCCNC2=O)CCC1 (centres undefined)
68 to 72	CCCc1c(OCC(O)COc2ccc3c(c2CCC)OC(C(=O)O)CC3=O)ccc(C(C)=O)c1O (centres undefined)

SMILES	melting point [°C]
CCN1C(=O)N(c2ccc(C#N)c(C(F)(F)F)c2)C(=O)C1(CO)CO	155 to 156
CCCCC1(N(C)C)CCC(c2[nH]c3ccc(F)cc3c2C)(c2[nH]c3ccccc3c2CCNC(=O)Nc2ccccc2)CC1 (centres undefined)	127 to 132
Cc1cc2c(cc1C)C(=O)C(CN1CCC3(CC1)C(=O)NCN3c1ccccc1)CC2 (centres undefined)	182 to 183
COC(=O)CCc1ccc(CNC(=O)[C@@H](CCCNC(N)=N[N+](=O)[O-])NC(=O)C(c2ccccc2)c2ccccc2)cc1	159 to 161
COc1cc(C2c3cc4c(cc3C(NC3=CC(=O)N(Cc5ccc(F)cc5)C3=O)C3COC(=O)C23)OCO4)cc(OC)c1O (centres undefined)	214 to 216
